How the values were obtained:
FTase = molecular target: T1, FTase (Bos taurus, UniProt P29702+P49355); test: Inhibition of FTase-mediated prenylation (in vitro prenylation assay); type: biochemical; conditions: Table 1; partially purified FTase, 3 μM recombinant H-ras, 440 nM [3H]FPP, 15 min 37° C
T1 construct: bovine brain by inference from the cited Moores et al. 1991
Text: (§1) Nanomolar concentrations of the indicated compounds were sufficient to inhibit farnesylation of ras proteins in vitro. For screening candidate compounds useful for the treatment of ras-associated tumors, the FTase assay is preferred. […] Substitutions which confer GGTase specificity as taught herein also produced potent inhibitors of GGTase.

GGTase = test: Inhibition of GGTase-mediated prenylation (in vitro prenylation assay); type: biochemical; conditions: Table 1; partially purified GGTase, 5 μM recombinant H-ras (61L, CAIL), 1 μM [3H] geranylgeranyl diphosphate
Text: as §1

[1] = test system: H-ras farnesylation in H-ras (61L) transformed NIH3T3 fibroblasts; test: Inhibition of H-ras farnesylation in whole cells (Western blot); type: cell-based, mouse
Experimental: The ability of compounds of the invention to inhibit H-ras farnesylation and rap1 geranylgeranylation in whole cells was determined. H-ras (61L) transformed NIH3T3 fibroblasts were generously provided by C. Der, Univ. N. Carolina. These fibroblasts were treated for 24 h with 50 μM lovastatin (control) or the indicated concentrations of inhibitor. The cells were lysed in 1% NP-40, 5 mM Tris-HCl (pH 8.0), 5 mM EDTA, 0.1 mM N-tosyl-L-phenylalanine chloromethyl ketone, 0.1 mM N-tosyl-L-lysine chloromethyl ketone, and 1 mM phenylmethylsulfonyl fluoride. The lysate was centrifuged (15000×g, 5 min.) and the supernatant was used as a cell extract. […] After transfer to IMMOBILON P™ membrane (Millipore), the blots were probed with LA069 mouse monoclonal antibody to H-ras (Quality Biotech), or rabbit polyclonal antibody to rap1/Krev (Santa Cruz Biotechnology). All Western blots were developed using ECL chemiluminescent reagents (Amersham).

[2] = Mus musculus, NIH3T3, 24 h, Table 2

CSCC[C@H](NC(=O)C(Cc1cccs1)NC[C@@H](/C=C/C(N)CS)C(C)C)C(=O)O (some centres unmarked) [PA031]
IC50 (FTase): 3.6 nM
IC50 (GGTase): 215 nM
IC50 [1, 2]: 1000 nM

CSCC[C@H](NC(=O)c1cc(C/C=C/[C@@H](N)CS)ccc1-c1cc(C(F)(F)F)cc(C(F)(F)F)c1)C(=O)O [PM042]
IC50 (FTase): 3100 nM
IC50 (GGTase): 320 nM
IC50 [1, 2]: > 500000 nM

COC(=O)[C@H](CCS(C)(=O)=O)NC(=O)C(/C=C/[C@@H](/C=C/C(N)CS)C(C)C)C(C)C (some centres unmarked) [PD132]
IC50 (FTase): 245 nM
IC50 (GGTase): 4770 nM
IC50 [1, 2]: 2600 nM

CSCC[C@H](NC(=O)C(Cc1ccccc1)NC[C@@H](/C=C/C(N)CS)C(C)C)C(=O)O (some centres unmarked) [PA041]
IC50 (FTase): 2.5 nM
IC50 (GGTase): 56 nM
IC50 [1, 2]: 3500 nM

CC[C@H](C)[C@H](NC[C@@H](/C=C/C(N)CS)C(C)C)C(=O)N[C@@H](CCSC)C(=O)O (some centres unmarked) [PA051]
IC50 (FTase): 20 nM
IC50 (GGTase): 76 nM
IC50 [1, 2]: 1900 nM

COc1ccc(-c2ccc(C/C=C/[C@@H](N)CS)cc2C(=O)N[C@@H](CCSC)C(=O)O)cc1 [PM011]
IC50 (FTase): 1130 nM
IC50 (GGTase): 1600 nM
IC50 [1, 2]: > 100000 nM

CSCC[C@H](NC(=O)c1cc(C/C=C/C(N)CS)ccc1-c1ccc(C(F)(F)F)cc1)C(=O)O (some centres unmarked) [PM071]
IC50 (FTase): 710 nM
IC50 (GGTase): 950 nM
IC50 [1, 2]: > 100000 nM

CSCCC(=O)NCC(/C=C/[C@@H](/C=C/[C@@H](N)CS)C(C)C)C(C)C (some centres unmarked) [PD082]
IC50 (FTase): 1570 nM

COC(=O)[C@H](CCSC)NC(=O)C(Cc1ccccc1)SC[C@@H](/C=C/C(N)CS)C(C)C (some centres unmarked) [PT011]
IC50 (FTase): 43 nM
IC50 (GGTase): 638 nM
IC50 [1, 2]: 23 nM

COC(=O)[C@H](CCSC)NC(=O)C(NC[C@@H](/C=C/C(N)CS)C(C)C)C(C)C (some centres unmarked) [PA101]
IC50 (FTase): 170 nM
IC50 (GGTase): 1300 nM
IC50 [1, 2]: 240 nM

CSCC[C@H](NC(=O)C(/C=C/[C@@H](/C=C/[C@@H](N)CS)C(C)C)C(C)C)C(=O)NC(C)(C)C (some centres unmarked) [PD222]
IC50 (FTase): 710 nM
IC50 (GGTase): 3040 nM
IC50 [1, 2]: > 50000 nM

COC(=O)[C@H](CCSC)NC(=O)C(Cc1ccccc1)OC[C@@H](/C=C/C(N)CS)C(C)C (some centres unmarked) [PE011]
IC50 (FTase): 43 nM
IC50 (GGTase): 1030 nM
IC50 [1, 2]: 10 nM

CC(C)[C@H](/C=C/C(N)CS)CNC(Cc1cccs1)C(=O)N[C@@H](CCS(C)(=O)=O)C(=O)O (some centres unmarked) [PA111]
IC50 (FTase): 13 nM
IC50 (GGTase): 270 nM
IC50 ([1]; Mus musculus, NIH3T3, Table 2, 24 h): 130 nM

CSCC[C@H](NC(=O)C(/C=C/[C@@H](/C=C/C(N)CS)C(C)(C)C)C(C)C)C(=O)O (single isomer, unassigned) [PD152]
IC50 (FTase): 23 nM
IC50 (GGTase): 44 nM
IC50 [1, 2]: 320 nM

CSCC[C@H](NC(=O)C(/C=C/[C@@H](/C=C/C(N)CS)C(C)(C)C)Cc1ccccc1)C(=O)O (some centres unmarked) [PD012]
IC50 (FTase): 38 nM
IC50 (GGTase): 620 nM
IC50 ([1]; Table 2, 24 h): 72000 nM

CSCC[C@H](NC(=O)c1cc(C/C=C/C(N)CS)ccc1C)C(=O)O (some centres unmarked) [PM112]
IC50 (FTase): 1.2 nM
IC50 (GGTase): 1660 nM
IC50 [1, 2]: 4000 nM

CSCCC(NC(=O)C(/C=C\C(/C=C/C(N)CS)C(C)C)Cc1ccccc1)C(=O)O (centres unmarked) [PD311]
IC50 (FTase): 69 nM
IC50 (GGTase): 570 nM
IC50 [1, 2]: 100 to 1000 nM

COC(=O)[C@H](CCSC)NC(=O)C(Cc1ccccc1)NC[C@@H](/C=C/C(N)CS)C(C)C (some centres unmarked) [PA091]
IC50 (FTase): 170 nM
IC50 (GGTase): 2380 nM
IC50 [1, 2]: 100 nM

CC(C)C(/C=C/[C@@H](/C=C/C(N)CS)C(C)C)C(=O)N[C@@H](CCC(N)=O)C(=O)O (some centres unmarked) [PD022]
IC50 (FTase): 5.2 nM
IC50 (GGTase): 3060 nM
IC50 [1, 2]: 400 nM

CC(C)CC(NC(=O)C(/C=C\[C@@H](/C=C/C(N)CS)C(C)C)Cc1ccccc1)C(=O)O (some centres unmarked) [PD381]
IC50 (FTase): 80 nM

CSCC[C@H](NCC(/C=C\[C@@H](/C=C/C(N)CS)C(C)C)Cc1ccccc1)C(=O)O (some centres unmarked) [PD431]
IC50 (FTase): 6 nM
IC50 (GGTase): 1080 nM

CSCC[C@H](NC(=O)C(/C=C/[C@@H](/C=C/C(N)CS)Cc1ccccc1)C(C)C)C(=O)O (some centres unmarked) [PD391]
IC50 (FTase): 29 nM
IC50 [1, 2]: 16400 nM

CC(C)[C@@H](/C=C\C(Cc1ccccc1)C(=O)NC(CO)C(=O)O)/C=C/C(N)CS (some centres unmarked) [PD361]
IC50 (FTase): 0.1 nM
IC50 [1, 2]: 3500 nM

CSCC[C@H](NC(=O)C(/C=C/C(/C=C/CCS)C(C)C)Cc1ccccc1)C(=O)O (single isomer, unassigned) [PD052]
IC50 (FTase): 2810 nM
IC50 (GGTase): 8050 nM

COC(=O)C(CCSC)NC(=O)C(/C=C\[C@@H](/C=C/C(N)CS)C(C)C)Cc1ccccc1 (some centres unmarked) [PD371]
IC50 (FTase): 38 nM
IC50 [1, 2]: 90 nM

CSCC[C@H](NC(=O)C(/C=C/[C@@H](/C=C/C(N)CS)C(C)C)C(C)C)C(=O)O (some centres unmarked) [PD341]
IC50 (FTase): 0.2 nM
IC50 [1, 2]: 290 nM

Source: patent publication US5840918A, “Isoprenyl transferase inhibitors” (Eisai Co., Ltd., priority 1997, dated 1998)
